This is an account of results in US20250122202A1, “EGFR INHIBITOR, PREPARATION METHOD THEREFOR AND USE THEREOF” (SHANDONG NEW TIME PHARMACEUTICAL CO., LTD., priority 2021, published 2025).

The subject of this data set is KC-1474 cell subcutaneous transplantation tumor. Description: In-vivo drug efficacy study, KC-1474 cell subcutaneous transplantation tumor in NPG mice. To be noted: for tumor volume inhibition rate (TGITV) / tumor weight inhibition rate (TGITW): 39 days, end of experiment. On the procedure:
Female SPF NPG mice weighed 19-22 g were used. The experimental animals were provided by Beijing Vitalstar Biotechnology Co., Ltd. with the experimental animal production license number SCXK (Jing) 2019-0002 and the experimental animal quality certification number of No.110341211100087928.
KC-1474 cells used in the experiment were cultured in a 5% CO2 37° C. incubator with an RPMI1640 medium supplemented with 10% FBS and […] of puromycin. Before the cells were continuously cultured for ten passages, the KC-1474 cells were adjusted to a concentration of 1×10^8/mL, and mixed with Matrigel at a volume ratio of 1:1, and the mixture was inoculated subcutaneously into the right lateral thorax of the NPG mice at 0.1 mL/mouse with 5×10^6 cells per mouse.
When the mean tumor volume of the mice reached about 100-130 mm^3, according to the tumor volume and weight, all the mice were randomly divided into […] group respectively: a model group (V), an example 60 compound oral administration group (po), an example 60 compound intravenous injection low-dose group (L), and an example 60 compound intravenous injection medium-dose group (M). The mice in all the groups were administrated once daily. The administration started on the day of the grouping and continued for 39 days. The mice in the model group were intravenously injected with the same volume of a solvent. The solvent was prepared by adding 2 g of polyethylene glycol-15 hydroxystearate (HS15) into 4 mL of dimethyl sulfoxide (DMSO), then adding 40 mL of purified water, and filtering an obtained mixture by using a 0.22-μm sterilizing filter. At the end of the experiment or the humane endpoint, the animals were euthanized using sodium pentobarbital for anesthesia.
Tumor volume was measured once during the grouping, once per week after the grouping using a vernier caliper, and before the euthanasia. A method for measuring the tumor volume was measuring the long diameter and the short diameter of a tumor using the vernier caliper.
The tumor volume was calculated by the formula: tumor volume=0.5×long diameter×short diameter^2.
(Ti: mean tumor volume of mice in the treatment groups on day i of the administration and T0: mean tumor volume of the mice in the treatment group on day 0 of the administration; and Vi: mean tumor volume of the mice in the model group on day i of the administration and V0: mean tumor volume of the mice in the model group on day 0 of the administration).
At the end of the experiment, the tumor tissue was stripped after the animals were euthanized, the tumor weight was weighed, and the tumor weight inhibition rate was calculated according to the following formula:
TGITW(%)=(Wmodel group−Wtreatment group)/Wmodel group×100%, wherein the W means tumor weight.
Original data was analyzed and the results were expressed as mean±standard deviation (mean±SD). At the same time, the tumor volume and the tumor weight were subjected to statistical analysis. AP<0.05 was considered to be a significant difference.

For the compound `CN1CCN(c2ccc(Nc3nc(N[C@H]4CC[C@@H](CO)CC4)c4c(C(=O)c5ccc(F)cc5)c[nH]c4n3)cc2)CC1` [Example 60], the “tumor volume inhibition rate (TGITV)” value (L group, 3 mg/kg qd iv) was determined as 31%; the “tumor volume inhibition rate (TGITV)” value (M group, 10 mg/kg qd iv) was 57%; the “tumor volume inhibition rate (TGITV)” value (po group, 20 mg/kg qd po) worked out at 28%. Moreover, the “tumor weight inhibition rate (TGITW)” value runs as follows: (L group, 3 mg/kg qd iv) 22%; (M group, 10 mg/kg qd iv) 61%; (po group, 20 mg/kg qd po) 21%. In addition, the “animal condition during the administration and observation” value (all groups, qd for 39 days) was “no diarrhea, vomiting, or rash”.
